Reference: patent US12433892B2, “Compositions and methods of treatment for neurological disorders comprising depression” (Gliapharm SA, priority 2018, dated 2025)
Counter-ions that a name gives are not always drawn.

What was measured:
[1] = system: cerebral glycogen; experiment: In vivo pharmacodynamics: glycogen levels in prefrontal cortex; design: species or system mouse; conditions: 10 mg/kg
Text: To measure intracerebral levels of glycogen, mice were euthanized at different time points after drug administration, using a microwave beam (1 sec, 6 kW) focused directly on mice brains. This method of fixation results in the rapid inhibition of enzymatic reactions, thereby preserving intact metabolic state in the brain of euthanized animals. Glycogen concentration was quantified using standard biochemical procedure. Groups of 8 male mice were used for each condition.
Glycogen levels were measured in microwave-fixed PFC (prefrontal cortex, 6 kW, 1 sec), which ensures enzymatic inhibition and stops glycogen degradation. Samples were then flash frozen before dosage.
First, glycogen levels were analyzed at 1 h, 3 h and 6 h after drug administration. […] This time point was subsequently used for dose-response experiments. Glycogen levels were quantified at 3H after administration with GP-01 to GP-07 at 1, 10 or 100 mg/kg.

[2] = system: astrocytes; experiment: Intracellular glycogen quantification; assay type: cell-based, mouse; conditions: Prestwick hits; 10 uM, 3 h
Experimental: For glycogen dosage, a protein dosage was first performed in order to assess whether harvested astrocytes from primary cell cultures yielded enough and equivalent amounts of proteins comparing each replicate, and to ensure that the obtained differences in glycogen quantities were due to drug action and not to inner protein quantities.
Astrocytes used for these dosages were previously grown in 6-well plates for 17 days and stimulated with Vehicle (DMSO) or drug of interest (1 μM to 100 μM) for 180 min, at 37° C. 5% CO2/95% air in D5030 complete medium. Medium was removed and replaced with 600 μl of 30 mM Tris HCl, and stored at −20° C.
Proteins were dosed using the micro BCA Protein Assay kit (Thermo Scientific), as described in the manufacturer's instructions. Briefly, thawed cells were sonicated and 5 μl aliquots were placed in a transparent 96-well plate, to which we added 25 μl 30 mM Tris HCl, 70 μl H2O and 100 μl of a BCA mix (made as described in manufacturer's guidelines). After a 120 min-incubation at 37° C., absorbance was measured with Safire 2 spectrophotometer at a wavelength of 562 nm, and protein quantities were determined from a standard curve of Bovine Serum Albumin (BSA).
Glycogen was quantified using a 250 μl-aliquot of the same stimulated, thawed, and sonicated cells. After an incubation period of 30 min at 90° C. and 400 rpm, 28 μl of an acetic acid/sodium acetate (both from Sigma) 0.1M pH 4.6 buffer was added to each aliquot, which was then separated in two. Each split aliquot received whether 5 μl of amyloglucosidase (Roche) or 5 μl H2O, and all cell solutions were incubated for 120 min in a shaking 37° C.-waterbath. After a centrifugation at 16'000 G for 5 min, 20 μl of supernatant were placed 96-well plate, to which 150 μl of a mix containing 0.67 mM ATP (Roche), 0.67 mM NADP (Roche), 1.8% hexokinase/glucose-6-phosphate dehydrogenase (Roche) and 0.1M Tris Buffer-HCl/3.3 mM magnesium (Fluka)/pH 8.1 buffer was added. Fluorescence was measured with Safire 2 spectrophotometer (340 nm excitation/440 nm emission). Glycogen concentration was obtained by subtracting glucose value of samples with amyloglucosidase to samples without amyloglucosidase, and were expressed relative to the amount of proteins previously determined.
Levels of intracellular glycogen in astrocytes were measured at 3 h after stimulation with 20 hits from the Prestwick library (10 μM each), as shown in FIG. 2. n=6-10; Ctrl pos. is glutamate (0.5 mM). Statistical analysis consisted in ANOVA followed by Fisher LSD post-hoc test for pair-wise comparisons.
Statistical analysis consisted in ANOVA followed by Fisher LSD post-hoc test for pair-wise comparisons.

[3] = system: C57Bl/6 female mice; conditions: 100 mg/kg single per os, 14 days monitoring
Experimental: The compound was administered at 10 mg/kg.
In vivo acute toxicity was assessed with a starting maximal concentration of 100 mg/kg. […] Groups of 6-8 female mice were monitored for 14 days after single oral administration of the drug, weighted every day, and a macroscopic histological examination was performed at the end of the experiment. Clinical evaluation included the observation of mice' ability to feed, hydrate, notification of any visible pain, unusual grooming or respiration, blood loss, evidence of microbial infection, and/or significant loss of weight.
For this period, mice were weighted and clinically monitored (feeding, hydration, pain, grooming, respiration, blood loss, microbial infection). At the end of the 14-day evaluation, mice were sacrificed and high level organ analysis was performed. Drugs were always administered per os (gavage) in solution composed of Methocel 4KM 0.4%, Tween 0.25%.

[4] = system: primary astrocytes; experiment: Intracellular glycogen quantification, Example 2; assay type: cell-based, mouse; conditions: 10 μM, 3 h (GP-0157: 0.1, 1, 10 μM)
Experimental: To assess for the effect of the compounds of the invention, those were tested in primary astrocytes, as described below. Secretion of lactate was measured directly in the extracellular medium, and indirectly through the acidification of extracellular medium using extracellular pH sensor SNARE-5F-(AND-6)-CAR (SNARF5). Glucose uptake was measured by quantification 2-deoxyglucose in the cell. Cell Cultures Primary cultures of cerebrocortical astrocytes were obtained from 1 to 2-day-old OF1 mouse pups (Charles River). Briefly, cortices were isolated and minced in small pieces under a dissecting microscope. The cells were incubated for 30 min at 37° C. in a solution containing 20 U/ml papain, 1 mM L-cysteine and 10 kU/ml DNase I. After dissociation, papain activity was stopped by the addition of fetal calf serum (FCS). Single-cell suspension was then obtained by mechanical dissociation, which consisted in cells trituration in a DMEM D7777 medium supplemented with 44 mm NaHCO3, 10 ml/L antibiotic/antimycotic solution and 10% FCS. The cells were seeded at an average density of ˜10'000 cells/cm2 on poly-D-lysine coated 96- or 12-well culture plates, depending on their use, and grown in DMEM D7777 medium supplemented with 44 mm NaHCO3, 10 ml/L antibiotic/antimycotic solution and 10% FCS at 37° C. in a humidified atmosphere containing 5% CO2/95% air. Culture medium was renewed twice a week. Cells were stimulated and harvested between DIV14 and DIV17, when confluence and cell growth were optimal. Extracellular Medium Acidification (SNARF5) Secretion of lactate was measured indirectly through the acidification of extracellular medium using extracellular pH sensor […] (SNARF5). After washing cells twice with stimulation medium (DMEM (D5030, Sigma), 1 mM NaHCO2, and 5 mM Glucose, pH 7.4) at 37° C., cells were stimulated with compounds at a final concentration ranging from 10 nM to 30 μM in 50 μl per well of stimulation medium supplemented with 10 μM of SNARF5 (Life Technologies Corporation). Each compound was tested in two different plates for duplicates. After 90 min stimulation, fluorescence was read at exc. (excitation) 480 nm/emm. (emission) 580 nm and at exc 480 nm/emm. 630 nm. The ratio of fluorescence between 630 nm and 580 emission values, which is proportional to extracellular pH, was calculated. In each plate, 8 wells were used for negative controls (DMSO 0.1%) and 8 wells were used for positive controls (CCCP 2 μM in DMSO). The extracellular medium acidification in primary mouse astrocytes treated with GP-A1 was quantified (FIG. 13). Extracellular medium acidification was measured over a period of 1.5 h and 3 h. […] Extracellular Lactate Quantification Secretion of L-lactate was measured in the extracellular medium of 96-well plated astrocytes after 90 min stimulation (at 37° C., in 5% CO2/95% air conditions) with Vehicle (DMSO), the compounds of the invention (100 nM to 100 μM) or positive control. […] Stimulation medium was composed of D5030 medium complemented with 5 mM D-glucose and 44 mM sodium bicarbonate, pH 7.2. To quantify lactate concentrations in the extracellular medium, 200 μl of a 0.2M Glycine-semicarbazide buffer (pH 10) containing 3 mM NAD and 14 U/ml LDH was added to each well of a 96-well plate containing 30 μl aliquots of extracellular medium. Samples were incubated at 37° C. for 1 h. Fluorescence intensity (340 nm excitation/450 nm emission), which represents the amount of NADH produced, was measured, and lactate concentration values were determined relative to a standard curve of L-lactate concentrations. The release of lactate from primary mouse astrocytes treated with GP-A1 was quantified (FIG. 5A and FIG. 14). Accumulation of lactate in the extracellular medium was measured over a period of 1.5 h. […] Intracellular Glycogen Quantification Astrocytes grown on 12-well plates were used for intracellular glycogen quantifications. […]

[5] = system: astrocytes; experiment: Intracellular glycogen quantification; assay type: cell-based, mouse; conditions: CDC54K hits; 10 uM, 3 h
[6] = system: C57Bl/6 male and female mice; experiment: Anxiety in elevated plus maze (EPM) after chronic treatment; assay type: in vivo, mouse; conditions: end of 28-day chronic treatment, 10 mg/kg
Experimental: Total distance, frequency of entry and duration in the open arms were measured using Ethovision automatic scoring; n>10;

[7] = system: cerebral extracellular lactate; experiment: In vivo pharmacodynamics: lactate biosensors in cortex; design: species or system mouse; conditions: 10 mg/kg per os
Experimental: Extracellular levels of lactate were monitored in vivo using lactate biosensors (Pinnacle Technology), according to the manufacturer's instructions. Cannulae were surgically implanted in mice cerebral cerebral motor cortex areas M1/M2 (coordinates: +1.94 mm (to bregma), lateral −1.4 mm (to mideline), ventral −1.0 mm (to dura)) 5-7 days before administration of the compounds. Drugs were administered per os as previously described, and cerebral levels of extracellular lactate were dynamically recorded for 6 hours. Mice were administered vehicle alone first, followed 3 hours later by vehicle or drug (10 or 100 mg/kg). Area Under the Curve (AUC) quantifying the fluctuations of extracellular lactate concentrations for each of the compound tested was calculated using Graphad Prism and the ratio of AUC after drug over Vehicle administration was calculated. Groups of 8 male mice were used for each condition.
To measure biological effect of lead molecules in vivo in the brain, lactate levels were quantified after administration of the drug by using lactate biosensors implanted in the cortex of freely moving mice.

[8] = system: C57Bl/6 male and female mice; experiment: In vivo chronic toxicity (28 days); conditions: chronic administration 10 mg/kg; treatment interrupted
Experimental: During this period, clinical symptoms and weight were recorded.
Chronic toxicity was assessed.

| Compound | PD effect [1] | Glycogen (statistical significance of glycogen degradation) [2] | acute toxicity (toxic or not) [3] | mobilization of intracellular glycogen [4] | Glycogen (statistical significance of glycogen degradation) [5] | anxiety in EPM [6] | cerebral lactate (AUC ratio vs vehicle) [7] | weight loss [8] [%] |
| --- | --- | --- | --- | --- | --- | --- | --- | --- |
| [H]/N=C(\N/C(=N/[H])Nc1ccc(Cl)cc1)NC(C)C [Proguanil hydrochloride] | did not show good PD effect | *** (***p<0.001) | toxic |  |  |  |  |  |
| O=S(=O)(Nc1cc(F)cc(F)c1)c1ccc2ccccc2c1 [T5884038] |  |  |  | significantly enhance the mobilization of intracellular glycogen | **** (****p<0.0001) |  |  |  |
| C#C[C@]1(O)CC[C@H]2[C@@H]3[C@H](C)CC4=C(CCC(=O)C4)[C@H]3CC[C@@]21C [Tibolone] |  | *** (***p<0.001) |  |  |  | increased anxiety | Significant increase | > 20 |
